Test system: individuals diagnosed with schizophrenia
Experiment: Change in PANSS-N subscale by SNP genotype, patients on iloperidone 24 mg/day b.i.d. for 28 days (MMRM)
Type: in vivo, human
Source text: Earlier studies investigated an association between a polymorphism in the CNTF gene and iloperidone efficacy as well as associations between CYP2D6 and KCNQ1 genotypes and changes in QT interval following the administration of iloperidone. The present study involved the genotyping of DNA samples collected from 426 individuals diagnosed with schizophrenia in an attempt to identify additional SNPs associated with iloperidone efficacy. Each sample was genotyped at more than 500,000 SNP loci using the GeneChip® Human Mapping 500K Array Set (Affymetrix, Santa Clara, Calif.) and using assays developed in-house. Approximately half of the participants in the study were administered 24 mg/day of iloperidone, b.i.d., for 28 days. About 25% of the patients were administered ziprasidone. The remaining participants were administered a placebo. Three analyses of the PANSS-T were conducted. 1) A two-step approach where samples were randomly split into 2 groups of iloperidone-treated patients used to discover SNPs associated with changed in PANSS-T (Discovery phase) and a second group to confirm the 100 most significant SNPs (Confirmatory phase). 2) A one-step approach using the Last Observation Carried Forward (LOCF) PANSS-T data of all iloperidone-treated patients. For each SNP, the most parsimonious genetic model (e.g., homozygous for one allele v. all other genotypes [i.e., AA v. AB and BB], heterozygous v. homozygous [i.e., AB v. AA and BB]) was established with respect to iloperidone efficacy using a one-way analysis of variance (ANOVA). 3) A Mixed-effects Model Repeated Measures (MMRM) analysis was subsequently conducted using the best genetic model of each SNP in the MMRM model. MMRM analyses were also conducted with the PANSS subscales PANSS-P, PANSS-N, and PANSS-GP. The SNPs with a statistically significant association in all 3 analyses of PANSS-T, as well as the best of each analysis were considered significant findings and are listed below in Table 1. Results for each of these SNPs with the PANSS-T scales and with the three subscales PANSS-P, PANSS-N, and PANSS-GP are shown in Tables 2, 3, 4, and 5, respectively. […] In the present case of iloperidone efficacy, it is likely that different markers are more specifically associated with one or a few specific clinical symptoms, which is reflected in the improvement measured in separate subscales.

With `COc1cc(C(C)=O)ccc1OCCCN1CCC(c2noc3cc(F)ccc23)CC1` [iloperidone, 1-[4-[3-[4-(6-fluoro-1,2-benzisoxazol-3-yl)-1-piperidinyl]propoxy]-3-methoxyphenyl]ethanone] the “mean of change in PANSS-N” value (SNP_A-1819750 (CREG1) genotype A_A) was −5.35, the “mean of change in PANSS-N” value (SNP_A-1819750 (CREG1) genotype A_B* (lowest response)) was −2.01 and the “mean of change in PANSS-N” value (SNP_A-1819750 (CREG1) genotype B_B) was −4.01. For the same compound, the “mean of change in PANSS-N” value (SNP_A-1819750 (CREG1) genotype nonAB** (highest response)) was −4.45, the “mean of change in PANSS-N” value (SNP_A-1860353 (RAP1B) genotype A_A** (highest response)) was −11.00 and the “mean of change in PANSS-N” value (SNP_A-1860353 (RAP1B) genotype A_B) was −2.29. The “mean of change in PANSS-N” value (SNP_A-1860353 (RAP1B) genotype B_B) was −2.73, the “mean of change in PANSS-N” value (SNP_A-1860353 (RAP1B) genotype nonAA* (lowest response)) was −2.65 and the “mean of change in PANSS-N” value (SNP_A-1934663 genotype A_A) was −3.38. For the same compound, the “mean of change in PANSS-N” value (SNP_A-1934663 genotype A_B) was −3.94, the “mean of change in PANSS-N” value (SNP_A-1934663 genotype B_B* (lowest response)) was −2.06 and the “mean of change in PANSS-N” value (SNP_A-1934663 genotype nonBB** (highest response)) was −3.82. The “mean of change in PANSS-N” value (SNP_A-1973093 (KIAA0040) genotype A_A) was −3.32, the “mean of change in PANSS-N” value (SNP_A-1973093 (KIAA0040) genotype A_B* (lowest response)) was −1.85 and the “mean of change in PANSS-N” value (SNP_A-1973093 (KIAA0040) genotype B_B) was −3.46. The “mean of change in PANSS-N” value (SNP_A-1973093 (KIAA0040) genotype nonAB** (highest response)) was −3.43, the “mean of change in PANSS-N” value (SNP_A-1975928 (SLC2A9) genotype A_A) was −2.87 and the “mean of change in PANSS-N” value (SNP_A-1975928 (SLC2A9) genotype A_B) was −2.95. The “mean of change in PANSS-N” value (SNP_A-1975928 (SLC2A9) genotype B_B* (lowest response)) was 0.62, the “mean of change in PANSS-N” value (SNP_A-1975928 (SLC2A9) genotype nonBB** (highest response)) was −2.89 and the “mean of change in PANSS-N” value (SNP_A-1987915 (GPR126) genotype A_A) was −1.91. For the same compound, the “mean of change in PANSS-N” value (SNP_A-1987915 (GPR126) genotype A_B) was −2.03, the “mean of change in PANSS-N” value (SNP_A-1987915 (GPR126) genotype B_B** (highest response)) was −4.28 and the “mean of change in PANSS-N” value (SNP_A-1987915 (GPR126) genotype nonBB* (lowest response)) was −2.00. The “mean of change in PANSS-N” value (SNP_A-2007721 (LOC58486) genotype A_A) was 0.51, the “mean of change in PANSS-N” value (SNP_A-2007721 (LOC58486) genotype A_B** (highest response)) was −4.73 and the “mean of change in PANSS-N” value (SNP_A-2007721 (LOC58486) genotype B_B) was −2.33. The “mean of change in PANSS-N” value (SNP_A-2007721 (LOC58486) genotype nonAB* (lowest response)) was −2.31, the “mean of change in PANSS-N” value (SNP_A-2044214 (HNT) genotype A_A) was −3.32 and the “mean of change in PANSS-N” value (SNP_A-2044214 (HNT) genotype A_B* (lowest response)) was −2.16. For the same compound, the “mean of change in PANSS-N” value (SNP_A-2044214 (HNT) genotype B_B) was −3.05, the “mean of change in PANSS-N” value (SNP_A-2044214 (HNT) genotype nonAB** (highest response)) was −3.22 and the “mean of change in PANSS-N” value (SNP_A-2048427 (NPAS3) genotype A_A) was −4.12. For the same compound, the “mean of change in PANSS-N” value (SNP_A-2048427 (NPAS3) genotype A_B) was −4.30, the “mean of change in PANSS-N” value (SNP_A-2048427 (NPAS3) genotype B_B* (lowest response)) was −2.27 and the “mean of change in PANSS-N” value (SNP_A-2048427 (NPAS3) genotype nonBB** (highest response)) was −4.28. For the same compound, the “mean of change in PANSS-N” value (SNP_A-2070454 (NKX2-5) genotype A_A) was −1.86, the “mean of change in PANSS-N” value (SNP_A-2070454 (NKX2-5) genotype A_B) was −2.40 and the “mean of change in PANSS-N” value (SNP_A-2070454 (NKX2-5) genotype B_B** (highest response)) was −4.58. For the same compound, the “mean of change in PANSS-N” value (SNP_A-2070454 (NKX2-5) genotype nonBB* (lowest response)) was −2.23, the “mean of change in PANSS-N” value (SNP_A-2076797 (NUDT9P1) genotype A_A) was −1.75 and the “mean of change in PANSS-N” value (SNP_A-2076797 (NUDT9P1) genotype A_B** (highest response)) was −4.06. The “mean of change in PANSS-N” value (SNP_A-2076797 (NUDT9P1) genotype B_B) was −1.62, the “mean of change in PANSS-N” value (SNP_A-2076797 (NUDT9P1) genotype nonAB* (lowest response)) was −1.69 and the “mean of change in PANSS-N” value (SNP_A-2103099 (HTR1A) genotype A_A) was −4.08. The “mean of change in PANSS-N” value (SNP_A-2103099 (HTR1A) genotype A_B* (lowest response)) was −2.09, the “mean of change in PANSS-N” value (SNP_A-2103099 (HTR1A) genotype B_B) was −3.40 and the “mean of change in PANSS-N” value (SNP_A-2103099 (HTR1A) genotype nonAB** (highest response)) was −3.65. For the same compound, the “mean of change in PANSS-N” value (SNP_A-2120958 genotype A_A) was −3.15, the “mean of change in PANSS-N” value (SNP_A-2120958 genotype A_B) was −2.84 and the “mean of change in PANSS-N” value (SNP_A-2120958 genotype B_B* (lowest response)) was −1.11. For the same compound, the “mean of change in PANSS-N” value (SNP_A-2120958 genotype nonBB** (highest response)) was −3.03, the “mean of change in PANSS-N” value (SNP_A-2170121 (C6) genotype A_A) was −2.14 and the “mean of change in PANSS-N” value (SNP_A-2170121 (C6) genotype A_B** (highest response)) was −4.78. For the same compound, the “mean of change in PANSS-N” value (SNP_A-2170121 (C6) genotype B_B) was −2.52, the “mean of change in PANSS-N” value (SNP_A-2170121 (C6) genotype nonAB* (lowest response)) was −2.17 and the “mean of change in PANSS-N” value (SNP_A-2274533 (LZTS1) genotype A_A** (highest response)) was −3.67. For the same compound, the “mean of change in PANSS-N” value (SNP_A-2274533 (LZTS1) genotype A_B) was −1.52, the “mean of change in PANSS-N” value (SNP_A-2274533 (LZTS1) genotype B_B) was −1.16 and the “mean of change in PANSS-N” value (SNP_A-2274533 (LZTS1) genotype nonAA* (lowest response)) was −1.44. For the same compound, the “mean of change in PANSS-N” value (SNP_A-2283283 (XKR4) genotype A_A* (lowest response)) was −0.95, the “mean of change in PANSS-N” value (SNP_A-2283283 (XKR4) genotype A_B) was −3.20 and the “mean of change in PANSS-N” value (SNP_A-2283283 (XKR4) genotype B_B) was −3.62. The “mean of change in PANSS-N” value (SNP_A-2283283 (XKR4) genotype nonAA** (highest response)) was −3.37, the “mean of change in PANSS-N” value (SNP_A-2284243 (GRIA4) genotype A_A) was −3.70 and the “mean of change in PANSS-N” value (SNP_A-2284243 (GRIA4) genotype A_B) was −3.46. The “mean of change in PANSS-N” value (SNP_A-2284243 (GRIA4) genotype B_B* (lowest response)) was −0.52, the “mean of change in PANSS-N” value (SNP_A-2284243 (GRIA4) genotype nonBB** (highest response)) was −3.55 and the “mean of change in PANSS-N” value (SNP_A-4204396 (CDH13) genotype A_A) was −3.22. For the same compound, the “mean of change in PANSS-N” value (SNP_A-4204396 (CDH13) genotype A_B) was −3.12, the “mean of change in PANSS-N” value (SNP_A-4204396 (CDH13) genotype B_B* (lowest response)) was 1.62 and the “mean of change in PANSS-N” value (SNP_A-4204396 (CDH13) genotype nonBB** (highest response)) was −3.18. For the same compound, the “mean of change in PANSS-N” value (SNP_A-4212785 (PPP1R3B) genotype A_A* (lowest response)) was 4.72, the “mean of change in PANSS-N” value (SNP_A-4212785 (PPP1R3B) genotype A_B) was −3.06 and the “mean of change in PANSS-N” value (SNP_A-4212785 (PPP1R3B) genotype B_B) was −3.11. For the same compound, the “mean of change in PANSS-N” value (SNP_A-4212785 (PPP1R3B) genotype nonAA** (highest response)) was −3.09, the “mean of change in PANSS-N” value (SNP_A-4230979 (ASB3) genotype A_A) was −1.72 and the “mean of change in PANSS-N” value (SNP_A-4230979 (ASB3) genotype A_B) was −2.02. The “mean of change in PANSS-N” value (SNP_A-4230979 (ASB3) genotype B_B** (highest response)) was −4.23, the “mean of change in PANSS-N” value (SNP_A-4230979 (ASB3) genotype nonBB* (lowest response)) was −1.96 and the “mean of change in PANSS-N” value (SNP_A-4256833 (MLCK) genotype A_A) was −3.58. The “mean of change in PANSS-N” value (SNP_A-4256833 (MLCK) genotype A_B* (lowest response)) was −0.86, the “mean of change in PANSS-N” value (SNP_A-4256833 (MLCK) genotype B_B) was −3.69 and the “mean of change in PANSS-N” value (SNP_A-4256833 (MLCK) genotype nonAB** (highest response)) was −3.68. The “mean of change in PANSS-N” value (SNP_A-4258279 (RRM1) genotype A_A) was −2.57, the “mean of change in PANSS-N” value (SNP_A-4258279 (RRM1) genotype A_B* (lowest response)) was −1.09 and the “mean of change in PANSS-N” value (SNP_A-4258279 (RRM1) genotype B_B) was −3.34. The “mean of change in PANSS-N” value (SNP_A-4258279 (RRM1) genotype nonAB** (highest response)) was −3.33.

— patent publication US9080214B2, “Genetic markers for efficacy of iloperidone in the treatment of psychotic symptoms” (Vanda Pharmaceuticals, Inc., priority 2007, dated 2015)
